Experimental data published in patent US11448964B2, “Coating compositions for use with an overcoated photoresist” (Rohm and Haas Electronic Materials Korea Ltd., priority 2016, dated 2022).

Assay: Solubility of thermal acid generators in organic solvents (super-saturated solution, shaken 16 hours, filtered, solid content by Thermal Gravimetric Analysis)
Assay type: physicochemical
Settings: room temperature, TGA; for Solubility in HBM (solid content of filtered solution): 2-hydroxyisobutyric acid methyl ester (HBM); for Solubility in EL (solid content of filtered solution): ethyl lactate (EL); for Solubility in PGME (solid content of filtered solution): propylene glycol methyl ether (PGME)

Structure (SMILES) | Solubility in HBM (solid content of filtered solution) [wt. %] | Solubility in EL (solid content of filtered solution) [wt. %] | Solubility in PGME (solid content of filtered solution) [wt. %]
COc1ccncc1 [Example 2, 4-methoxypyridin-1-ium 4-methylbenzenesulfonate] | 18 | 32 | 26
Cc1ccccn1 [Example 1, 2-methylpyridin-1-ium 4-methylbenzenesulfonate] | 20 | 29 | 27
